According to PMC11762577 (Materials Today Bio, 2025):

Key:
[1] = system: U87-MG cells; test: CCK-8 cell viability / cytotoxicity assay in U87-MG cells; assay type: cell-based, human; conditions: incubation with U87-MG cells for 24 h
[2] = assay type: in vivo, BALB/c nude mice; conditions: orthotopic glioma nude mice; 2.5 mg/kg Dox equivalent every three days; n = 5

COc1cccc2c1C(=O)c1c(O)c3c(c(O)c1C2=O)C[C@@](O)(C(=O)CO)C[C@@H]3O[C@H]1C[C@H](N)[C@H](O)[C@H](C)O1 [Dox, doxorubicin]
IC50 (equivalent Dox concentration), U87-MG cell viability [1]: 3.49 µg/mL
body weight of tumor-bearing mice [2]: decreased on day 12
